{"source": "patent US11400102B2", "about": "“Treatment for bacterial infections with salicylic acid analogs” (priority 2019, dated 2022)", "key": {"yersiniabactin [1]": {"tested_on": "yersiniabactin", "assay": "13C labeled salicylic acid in infection model, labeled Ybt in mouse urine", "format": "in vivo", "conditions": "FIG. 12 right panel"}, "yersiniabactin [2]": {"tested_on": "yersiniabactin", "assay": "13C labeled salicylic acid incorporation into Ybt in culture", "format": "cell-based", "conditions": "FIG. 12 middle panel"}}}
{"smiles": "O=C(O)[13c]1[13cH][13cH][13cH][13cH][13c]1O", "note": "[^13C labeled salicylic acid]", "values": [{"measurement": "labeled compound in mouse urine by mass spectrometry", "setting": "yersiniabactin [1]", "result": "detectable"}, {"measurement": "incorporation of labeled compound into Ybt during culture", "setting": "yersiniabactin [2]", "result": "incorporated"}]}
